Assay results as given in ChEMBL document CHEMBL1140592, “Identification of novel, selective and potent Chk2 inhibitors” (Bioorg Med Chem Lett, 2007).

Target: Serine/threonine-protein kinase Chk2 (Homo sapiens, UniProt O96017)
Assay: Inhibition of Chk2 kinase

Serine/threonine-protein kinase Chk2, sequence (O96017 whole entry): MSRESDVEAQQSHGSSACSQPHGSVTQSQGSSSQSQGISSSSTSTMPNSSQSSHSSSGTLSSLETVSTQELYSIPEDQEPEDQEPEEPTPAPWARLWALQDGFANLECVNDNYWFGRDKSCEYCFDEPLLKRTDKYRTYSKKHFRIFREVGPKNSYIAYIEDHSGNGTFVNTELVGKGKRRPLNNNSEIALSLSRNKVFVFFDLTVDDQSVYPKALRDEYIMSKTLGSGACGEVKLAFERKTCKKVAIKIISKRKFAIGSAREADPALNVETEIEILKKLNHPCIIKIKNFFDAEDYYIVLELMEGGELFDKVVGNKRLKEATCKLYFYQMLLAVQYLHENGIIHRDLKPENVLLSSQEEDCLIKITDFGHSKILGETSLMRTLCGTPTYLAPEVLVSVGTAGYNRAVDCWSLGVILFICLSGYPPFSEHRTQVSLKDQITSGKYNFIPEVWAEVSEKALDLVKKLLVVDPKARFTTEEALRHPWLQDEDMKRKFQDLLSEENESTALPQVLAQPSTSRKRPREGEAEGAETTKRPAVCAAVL

| Compound | IC50 [µM] |
| --- | --- |
| N=C(NCC(O)CO)c1c(O)nsc1Nc1ccc(Nc2ccc(Br)cc2)cc1 (stereo not given) | 0.47 |
| N=C(NCCCCO)c1c(O)nsc1Nc1ccc(Nc2ccc(Br)cc2)cc1 | 0.31 |
| CC(C)NC(=N)c1c(O)nsc1Nc1ccc(/N=N/c2ccccc2)cc1 | 11 |
| CC(CO)NC(=N)c1c(O)nsc1Nc1ccc(Nc2ccc(Br)cc2)cc1 (stereo not given) | 0.14 |
| CC(C)NC(=N)c1c(O)nsc1Nc1ccc(Cc2ccccc2)cc1 | 8 |
| N=C(NCC1CCCCC1)c1c(O)nsc1Nc1ccc(/N=N/c2ccccc2)cc1 | 11 |
| N=C(NCC(O)CO)c1c(O)nsc1Nc1ccc(Nc2ccccc2)cc1 (stereo not given) | 0.9 |
| CC(C)NC(=N)c1c(O)nsc1Nc1ccc(S(=O)(=O)c2ccccc2)cc1 | > 40 |
| N=C(NCCO)c1c(O)nsc1Nc1ccc(Nc2ccc(Br)cc2)cc1 | 0.22 |
| CC(C)NC(=N)c1c(O)nsc1Nc1ccc(Nc2ccccc2)cc1 | 0.42 |
| CC(C)NC(=N)c1c(O)nsc1Nc1ccc(C2CCCCC2)cc1 | 19 |
| N=C(NCC1CCCCC1)c1c(O)nsc1Nc1ccc(Nc2ccccc2)cc1 | 1.8 |
| N=C(NCC1CCCCC1)c1c(O)nsc1Nc1ccc(Cc2ccccc2)cc1 | 37 |
| CC(CO)NC(=N)c1c(O)nsc1Nc1ccc(Nc2ccccc2)cc1 (stereo not given) | 0.46 |
| N=C(NCC1CCCCC1)c1c(O)nsc1Nc1ccc(Sc2ccccc2)cc1 | 19 |
| CC(C)NC(=N)c1c(O)nsc1Nc1ccc(Nc2ccc(Br)cc2)cc1 | 0.087 |
| CC(C)NC(=N)c1c(O)nsc1Nc1ccc(Oc2ccccc2)cc1 | 2.3 |
| CC(CO)NC(=N)c1c(O)nsc1Nc1ccc(-n2cccn2)cc1 (stereo not given) | > 40 |
| N=C(NCC1CCCCC1)c1c(O)nsc1Nc1ccc(Nc2ccc(Br)cc2)cc1 | 0.3 |
| N=C(NCC1CCCCC1)c1c(O)nsc1Nc1ccc(C(=O)c2ccccc2)cc1 | 5 |
| N=C(NCCO)c1c(O)nsc1Nc1ccc(Nc2ccccc2)cc1 | 1 |
| CCC[C@H]1CC[C@H](c2ccc(Nc3s[nH]c(=O)c3C(N)=NCC(O)CO)cc2)CC1 (stereo not given in full) | 17 |
| NC(=NCC1CCCCC1)c1c(Nc2ccc(-n3cccn3)cc2)s[nH]c1=O | 40 |
| N=C(NCc1cccc2ccccc12)c1c(O)nsc1Nc1ccc(Nc2ccc(Br)cc2)cc1 | 0.46 |
| N=C(NCCCCO)c1c(O)nsc1Nc1ccc(Nc2ccccc2)cc1 | 1.2 |
